“Also recorded” adds a separate entry of the source.
Columns and labels:
[1] = tested on: SREBP-1c, FAS, ACC, PEPCK, G6Pase, and PGC-1α; experiment: expression of lipogenic and gluconeogenic enzymes in human hepatocytes; type: cell-based
From the text: Relative values are Mean±SEM (N=4-8). Asterisks: *, P<0.05; **, P<0.01; ***, P<0.001. ANOVA.

aPKC [2] = experiment: aPKC activity in human hepatocytes; type: cell-based; conditions: normal human hepatocytes, 100 μM metformin, preliminary studies
From the text: (§1) Relative values. Mean±SEM (N=4-8). Asterisks: *, P<0.05; **, P<0.01; ***, P<0.001.

phospho-thr-231-tau = phospho-thr-231-tau levels in LA1-5s neuroblastoma cells; type: cell-based, human; conditions: LA1-5s cells, metformin alone
Experimental: (§2) Shown here are Mean±SEM (N=4) values relative to the mean initial basal or insulin-stimulated level of indicated immunoreactive protein/peptide. Asterisks: *, P<0.05; **, P<0.01; ***, P<0.001 (ANOVA).
(§3) Western Analyses. As described, Western analyses were conducted with rabbit antisera or mouse monoclonal antibodies (mMab), using: anti-aPKC (Santa Cruz Biotechnologies, Santa Cruz, CA); anti-phospho-threonine-560/555-PKC-ζ/λ/ι (Invitrogen, Carlsbad, CA); anti-p-serine-256-FoxO1 and anti-FoxO1 (Abnova, Walnut, CA); anti-Akt (mMab), anti-phospho-serine-473-Akt, anti-phospho-serine-9-GSK3P anti-GSK313, anti-phospho-serine-253-FoxO3a, anti-FoxO3a, anti-phospho-serine-256-FoxO1, anti-phospho-serine-193-FoxO4; anti-FoxO1, anti-phospho-serine-2448-mTOR, anti-mTOR, anti-β-amyloid (anti-5-10 kDa-Aβ1-40/42) and anti-amyloid precursor protein (anti-120 kDa-APP) (Cell Signaling Technologies, Danvers, MA); and anti-phospho-serine-202-tau, anti-phospho-threonine-231-tau (Gene Tex, Irvine, CA). Samples from experimental groups were compared on the same blots, and routinely checked with loading controls. Note that: insulin-sensitive 70 kDa aPKC is largely PKC-ζ in mouse brain and orthologous PKC-ι (98% aa homology) in monkey and other primate brains; brain PKC-ζ exists largely as a 50 kDa moiety that, lacking a regulatory domain, is constitutively-active and unresponsive to insulin.

aPKC [3] = experiment: aPKC activity in LA1-5s neuroblastoma cells; type: cell-based, human
Aβ1-40/42 [4] = experiment: Aβ1-40/42 levels in LA1-5s neuroblastoma cells; type: cell-based, human; conditions: for effect on levels of Aβ1-40/42: LA1-5s cells
Experimental: (§4) Relative bar values in panel a are mean±SEM of 6 determinations. Asterisks: *, P<0.05; **, P<0.01; ***, P<0.001 (ANOVA). Values in panel b are means of 2-4 determinations.
as §2, §3

β-secretase (BACE1) [5] = experiment: β-secretase activity (BACE1) in LA1-5s neuroblastoma cells; type: cell-based, human; conditions: LA1-5s cells
Experimental: as §4, §2
(§5) β-Secretase Activity (BACE1; beta-site APP-cleaving enzyme-1). β-Secretase was measured was measured using a kit from Thermo-Fisher.

Akt [6] = experiment: Akt activity in human hepatocytes; type: cell-based; conditions: normal human hepatocytes, 100 μM metformin, preliminary studies
From the text: as §1

[7] = cited from earlier work
70 kDa PKC-λ/ι = molecular target: T1, 70 kDa PKC-λ/ι (Mus musculus, UniProt Q62074); experiment: brain aPKC (PKC-λ/ι) phosphorylation/activity in mice; type: in vivo
T1 construct: insulin-sensitive 70 kDa PKC-λ/ι in brains of Het-MλKO mice; from tissue; host or cells: mouse brain homogenate
T1 sequence (Q62074 1-595): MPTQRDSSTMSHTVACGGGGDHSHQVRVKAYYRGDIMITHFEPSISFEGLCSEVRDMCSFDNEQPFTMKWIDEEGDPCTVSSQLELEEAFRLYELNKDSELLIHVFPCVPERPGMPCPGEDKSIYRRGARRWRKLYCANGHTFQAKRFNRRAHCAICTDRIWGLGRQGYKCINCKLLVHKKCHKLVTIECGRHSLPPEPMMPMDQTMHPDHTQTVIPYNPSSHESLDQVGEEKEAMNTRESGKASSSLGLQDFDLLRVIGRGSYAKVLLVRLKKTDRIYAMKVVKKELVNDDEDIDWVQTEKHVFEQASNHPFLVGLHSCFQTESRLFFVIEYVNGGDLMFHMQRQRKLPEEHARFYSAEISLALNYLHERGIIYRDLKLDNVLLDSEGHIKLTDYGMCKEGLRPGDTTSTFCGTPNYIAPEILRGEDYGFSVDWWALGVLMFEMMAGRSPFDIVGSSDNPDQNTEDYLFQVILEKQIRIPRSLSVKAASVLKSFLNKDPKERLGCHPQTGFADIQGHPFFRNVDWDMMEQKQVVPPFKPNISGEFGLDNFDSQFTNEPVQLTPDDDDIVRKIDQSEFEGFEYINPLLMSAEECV
From the text: (§6) Mouse Studies. Brain samples were obtained from normal and insulin-resistant mice and monkeys used previously, and includes mice originally used in studies of insulin signaling and resistance in liver: (a) 4-6 month old C57Bl/6 mice used in studies of high-fat-feeding [USF Vivarium] [6]; 4-6 month-old male C57Bl/6 ob/ob and lean ob+ mice (Jackson Labs, Bar Harbor, Maine); and (c) 10-12 month-old C57Bl/6 Het-MλKO mice [USF Vivarium] [8]. […] Where indicated normal mice were given a single SC injection of saline or saline containing 1.5 mg/kg ICAPP to follow time-related alterations in brain signaling factors. Where indicated, mice were treated intraperitoneally (IP) with insulin (1 U/kg body weight) or vehicle 15-min before euthanization by administration of Xylazine/Ketamine, followed by whole body perfusion with phosphate-buffered saline and rapid removal of brain and other tissues.
(§7) Tissue Preparations. As described, mouse brains were hemisected sagittally, and one-half was frozen in liquid N2, stored at −80° C., and samples thereof were homogenized in buffer containing 0.25M sucrose, 20 mM Tris/HCl (pH, 7.5), 2 mmol/l EGTA, 2 mM EDTA, 1 mM phenlysulfonoylfluoride (PMSF), 20 μg/ml leupeptin, 10 μg/ml aprotinin, 2 mM Na4P2O7, 2 mM Na3VO4, 2 mM NaF, and 1 μM microcystin, and then supplemented with 1% TritonX-100, 0.6% Nonidet and 150 mM NaCl.
as §3
(§8) Where indicated, mice were randomly treated with insulin (1 unit/kg/bw i.p.) 15 min before being euthanized by administration of xylazine/ketamine, followed by whole-body perfusion with PBS and rapid removal of brain and other tissues.

[8] = tested on: Akt substrates, GSK3β and mTOR; experiment: phosphorylation of Akt substrates in LA1-5s neuroblastoma cells; type: cell-based, human; conditions: 200 nM insulin
Experimental: as §4, §3

Akt [9] = experiment: Akt activity in LA1-5s neuroblastoma cells; type: cell-based, human; conditions: 200 nM insulin
Experimental: as §4, §2, §3

β-secretase (BACE1) [10] = experiment: brain β-secretase activity (BACE1) in mice; type: in vivo, mouse; conditions: normal WT mice, insulin 1 U/kg i.p. 15 min
From the text: Mouse Studies. Brain samples were obtained from normal and insulin-resistant mice and monkeys used previously, and includes mice originally used in studies of insulin signaling and resistance in liver: (a) 4-6 month old C57Bl/6 mice used in studies of high-fat-feeding [USF Vivarium] [6]; 4-6 month-old male C57Bl/6 ob/ob and lean ob+ mice (Jackson Labs, Bar Harbor, Maine); and (c) 10-12 month-old C57Bl/6 Het-MλKO mice [USF Vivarium] [8]. Males and females were comparably present in experimental groups, and sex didn't appreciably alter combined findings. Hepatic alterations, clinical characteristics and ameliorating effects of liver-selective aPKC inhibitors were reported previously. […] Where indicated, Het-MλKO were injected subcutaneously (SC) once daily for 8 days with saline or 1H-imidazole-4-carboxamide,5-amino]-(2,3-dihydroxy-4-[(phosphono-oxy)methyl]cyclopentane-[1R-(1a,2b,3b,4a)] (ICAPP) 0.4 mg/kg body weight) in saline, to inhibit hepatic aPKC, and thus diminish aPKC-dependent expression of hepatic gluconeogenic and lipogenic enzymes, and thereby reduce serum insulin levels to near-normal. Where indicated normal mice were given a single SC injection of saline or saline containing 1.5 mg/kg ICAPP to follow time-related alterations in brain signaling factors. Where indicated, mice were treated intraperitoneally (IP) with insulin (1 U/kg body weight) or vehicle 15-min before euthanization by administration of Xylazine/Ketamine, followed by whole body perfusion with phosphate-buffered saline and rapid removal of brain and other tissues.
as §7, §5

Aβ1-40/42 [11] = experiment: brain Aβ1-40/42 peptide levels in mice; type: in vivo, mouse; conditions: control mice, insulin 1 unit/kg i.p. 15 min
From the text: as §6, §7, §3, §8

Akt [12] = experiment: brain Akt phosphorylation/activity in mice; type: in vivo, mouse; conditions: control mice, insulin 1 unit/kg i.p. 15 min
From the text: as §6, §7, §3, §8

[13] = neuroblastoma cells, 200 nM insulin, 1 hour

## CN(C)C(=N)N=C(N)N [metformin]
[1]; hepatocytes, metformin
  SREBP-1c activity and expression of lipogenic enzymes: increases in activity of SREBP-1c and SREBP-1c-dependent expression of lipogenic enzymes
[1]; normal human hepatocytes, 100 μM metformin, preliminary studies
  gluconeogenic enzyme expression: increases in gluconeogenic enzyme expression
aPKC [2]
  aPKC activity: increases in aPKC activity
phospho-thr-231-tau
  effect on levels of phospho-thr-231-tau: increase
aPKC [3]; LA1-5s cells, metformin alone
  effect on aPKC activity: increase
Aβ1-40/42 [4]; metformin alone
  effect on levels of Aβ1-40/42: increase
β-secretase (BACE1) [5]; metformin alone
  effect on β-secretase activity: increase
Akt [6]
  Akt activation and action: impairments in Akt activation and action

## NC(=O)c1ncn([C@@H]2C[C@H](CO)[C@@H](O)[C@H]2O)c1N [ICAP, reference compound]
[7]; HFF and ob/ob mice, doses effective on hepatic aPKC, initial studies
  hyperinsulinemia, with regard to hyperactivation of CNS Akt and aPKC: did not improve hyperinsulinemia sufficiently
70 kDa PKC-λ/ι; normal mice, doses employed in the initial studies
  acute effects of insulin on CNS aPKC activity: unable to diminish acute effects of insulin on CNS aPKC activity

## O=C(O)CC([S-])C(=O)O.[Au+] (stereo not drawn) [ATM, aurothiomalate]
[7]; Het-MλKO mice, reported previously
  serum insulin levels / hyperinsulinemia: fully/sufficiently improved; also recorded: reduced serum insulin levels to normal

## insulin
[8]; LA1-5s cells, 24 hours
  effect on phosphorylation of Akt substrates, GSK3β and mTOR: elicited increases
[8]; neuroblastoma cells, 1 hour
  effect on Akt-dependent GSK3β and mTOR phosphorylation: can increase
70 kDa PKC-λ/ι; control mice, insulin 1 unit/kg i.p. 15 min
  brain aPKC activity: provoked increases
Akt [9]; LA1-5s cells, 24 hours
  effect on Akt activity: elicited increases
Akt [9]; neuroblastoma cells, 1 hour
  effect on Akt activity: can increase
aPKC [3]; LA1-5s cells, 200 nM insulin, 24 hours
  effect on aPKC activity: elicited increases
aPKC [3]; [13]
  effect on aPKC activity: can increase
β-secretase (BACE1) [10]
  brain β-secretase activity (BACE1): accompanied by increases
Aβ1-40/42 [11]
  brain Aβ1-40/42 peptide levels: increased
Akt [12]
  brain Akt activity: provoked increases
Aβ1-40/42 [4]; 200 nM insulin, 24 hours
  effect on levels of Aβ1-40/42: elicited increases
Aβ1-40/42 [4]; [13]
  effect on Aβ1-40/42 peptide levels: can increase
β-secretase (BACE1) [5]; 200 nM insulin, 24 hours
  effect on activity of β-secretase: elicited increases

Source: patent US11865125B2, “APKC inhibitors and methods of treating a neurodegenerative disease or disorder” (UNIVERSITY OF SOUTH FLORIDA, priority 2016, dated 2024)
